From ChEMBL document CHEMBL1201862, “PubChem BioAssay data set” (2004)
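These data come from cells grown in 96-well plates and exposed to compound for 48 hours at five concentrations. Here, GI50 denotes the concentration required for 50% inhibition of growth.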 Activity calls are given as the source filed them. Rule as the data show it: active = GI50 up to about 1.1 µM and inactive = higher.

Assays:
Test in all cases: NCI tumour cell line growth inhibition, 48 h
[1] = system: ACHN
[2] = system: CAKI-1
[3] = system: HCC 2998
[4] = system: IGROV-1
[5] = system: K562
[6] = system: KM-20L2
[7] = system: LOX IMVI
[8] = system: NCI-H460
[9] = system: NCI-H522
[10] = system: OVCAR-5
[11] = system: RXF 393
[12] = system: SF-268
[13] = system: SK-MEL-28
[14] = system: SNB-75
[15] = system: SW-620
[16] = system: UACC-62
[17] = system: SK-OV-3
[18] = system: MDA-MB-231
[19] = system: NCI/ADR-RES
[20] = system: PC-3

SMILES | GI50 [1] | GI50 [2] | GI50 [3] | GI50 [4] | GI50 [5] | GI50 [6] | GI50 [7] | GI50 [8] | GI50 [9] | GI50 [10] | GI50 [11] | GI50 [12] | GI50 [13] | GI50 [14] | GI50 [15] | GI50 [16] | GI50 [17] | GI50 [18] | GI50 [19] | GI50 [20]
CCOC(=O)[C@H]1Nc2ccc(OC)cc2C2c3ccccc3CC21 (stereo partly drawn) | > 100 µM (inactive) | > 100 µM (inactive) | 46.8 µM (inactive) | > 100 µM (inactive) | > 100 µM (inactive) | > 100 µM (inactive) | > 100 µM (inactive) | > 100 µM (inactive) | > 100 µM (inactive) | > 100 µM (inactive) | 37.5 µM (inactive) | > 100 µM (inactive) | > 100 µM (inactive) | 83.9 µM (inactive) | > 100 µM (inactive) | > 100 µM (inactive) |  |  |  | 
CCOC(=O)C1=C(C)N(NC(=O)Nc2ccccc2)C2(N)N(NC(=O)Nc3ccccc3)C(C)=C(C(=O)OCC)C12C#N (stereo not drawn) | 21 µM (inactive) | 19.2 µM (inactive) | 19.2 µM (inactive) | 19.7 µM (inactive) | 20 µM (inactive) | 18.7 µM (inactive) | 18.9 µM (inactive) | 17.8 µM (inactive) | 18.9 µM (inactive) | 17.8 µM (inactive) | 13.6 µM (inactive) | 19.9 µM (inactive) | 16.9 µM (inactive) | 18.9 µM (inactive) | 18.9 µM (inactive) | 17.5 µM (inactive) | 25.5 µM (inactive) |  |  | 
CC[C@@]1(OC(=O)CCC(=O)O)C(=O)OCc2c1cc1n(c2=O)Cc2cc3ccccc3nc2-1 | 0.0208 µM (active) | 0.0309 µM (active) | 0.458 µM (active) | 0.541 µM (active) | 0.36 µM (active) | 0.979 µM (active) | 0.0375 µM (active) | < 0.01 µM (active) | 0.103 µM (active) | 0.363 µM (active) | 0.257 µM (active) | 0.0395 µM (active) | 1.23 µM (inactive) | 0.104 µM (active) | 0.15 µM (active) | 0.0187 µM (active) | 0.23 µM (active) | 3.86 µM (inactive) | 0.0383 µM (active) | 0.239 µM (active)
CNS(=O)(=O)NNS(=O)(=O)c1cccc([N+](=O)[O-])c1 | > 100 µM (inactive) | > 100 µM (inactive) | > 100 µM (inactive) | > 100 µM (inactive) | > 100 µM (inactive) | > 100 µM (inactive) | > 100 µM (inactive) | > 100 µM (inactive) | > 100 µM (inactive) |  | > 100 µM (inactive) |  |  | > 100 µM (inactive) | > 100 µM (inactive) | > 100 µM (inactive) |  |  |  | 
C/C(=N\NC(=N)N)C(CN1CCOCC1)C(c1ccccc1)c1c(O)c2ccccc2oc1=O (stereo not drawn) | > 100 µM (inactive) | > 100 µM (inactive) | > 100 µM (inactive) | > 100 µM (inactive) | > 100 µM (inactive) | > 100 µM (inactive) | > 100 µM (inactive) | > 100 µM (inactive) | > 100 µM (inactive) | > 100 µM (inactive) | 29 µM (inactive) | > 100 µM (inactive) | > 100 µM (inactive) | 24.9 µM (inactive) | > 100 µM (inactive) | 81.3 µM (inactive) | > 100 µM (inactive) |  |  | 
N#CC1=C(N)Oc2c(ccc3cccnc23)C1c1ccccc1 (stereo not drawn) | 10.4 µM (inactive) | 0.619 µM (active) | 4.69 µM (inactive) | 0.847 µM (active) | 0.396 µM (active) | 0.555 µM (active) | 1.34 µM (inactive) | 0.738 µM (active) |  | 72.4 µM (inactive) | 2.13 µM (inactive) | 2.73 µM (inactive) | 6.12 µM (inactive) | 0.731 µM (active) | 0.51 µM (active) | 0.697 µM (active) | 0.731 µM (active) |  |  | 
CN(C)c1ccc(/C=C2\C=Cc3ccccc32)cc1 | > 100 µM (inactive) | 78 µM (inactive) | 78 µM (inactive) | 53.7 µM (inactive) | 28.8 µM (inactive) | 42.6 µM (inactive) | 47.2 µM (inactive) | 39.4 µM (inactive) | 17.3 µM (inactive) | > 100 µM (inactive) | 17.9 µM (inactive) | 45.1 µM (inactive) | 43.6 µM (inactive) | 11.3 µM (inactive) | 38.1 µM (inactive) | 42.3 µM (inactive) | 45.9 µM (inactive) |  |  | 
COc1cc(C2c3cc4c(cc3[C@@H](Nc3cccc(O)c3)C3COC(=O)[C@H]23)OCO4)cc(OC)c1O (stereo partly drawn) | 0.668 µM (active) |  | 3.58 µM (inactive) | 3.98 µM (inactive) | 1.69 µM (inactive) | 2.16 µM (inactive) | 0.703 µM (active) | 0.0726 µM (active) | 1.32 µM (inactive) | 8.26 µM (inactive) | 1.44 µM (inactive) | 1.89 µM (inactive) | 2.81 µM (inactive) | 2.38 µM (inactive) | 2.8 µM (inactive) | 1.2 µM (inactive) | 4.61 µM (inactive) | 5.42 µM (inactive) | 1.4 µM (inactive) | 2.14 µM (inactive)
CCOC(=O)NC(=O)c1cn(CCCOC(=O)CCCCCCCCC(=O)OCCCn2cc(C(=O)NC(=O)OCC)c(=O)n(C)c2=O)c(=O)n(C)c1=O | > 100 µM (inactive) | > 69 µM (inactive) | > 100 µM (inactive) | > 100 µM (inactive) | > 100 µM (inactive) | > 100 µM (inactive) | > 100 µM (inactive) | > 100 µM (inactive) | > 100 µM (inactive) | > 100 µM (inactive) | > 82.8 µM (inactive) | > 100 µM (inactive) | > 100 µM (inactive) | > 48.2 µM (inactive) | > 92 µM (inactive) | > 100 µM (inactive) | > 100 µM (inactive) |  | > 100 µM (inactive) | > 100 µM (inactive)
Cc1nc(O)nc(CC(O)(c2ccccc2)c2ccccc2)c1-c1ccccc1 | > 100 µM (inactive) | > 100 µM (inactive) | > 100 µM (inactive) | > 100 µM (inactive) | > 100 µM (inactive) | > 100 µM (inactive) | > 100 µM (inactive) | > 100 µM (inactive) | 58.5 µM (inactive) | > 100 µM (inactive) | > 100 µM (inactive) | > 100 µM (inactive) | > 100 µM (inactive) | 52.6 µM (inactive) | > 100 µM (inactive) | > 100 µM (inactive) | > 100 µM (inactive) |  |  | 
CCOC(=O)C12CCSC1C1(C#N)C(C#N)=CC2(N=P(c2ccccc2)(c2ccccc2)c2ccccc2)n2c(=O)n(-c3ccccc3)c(=O)n21 (stereo not drawn) | 40.2 µM (inactive) | 28.6 µM (inactive) | 27.7 µM (inactive) | 59.8 µM (inactive) | 33.9 µM (inactive) | 65 µM (inactive) | 39.9 µM (inactive) | 37.7 µM (inactive) | 29.5 µM (inactive) | > 100 µM (inactive) | > 100 µM (inactive) | 35.1 µM (inactive) | 27.5 µM (inactive) | 47 µM (inactive) | 64 µM (inactive) | 27.5 µM (inactive) |  |  |  | 
Cn1c2cc([N+](=O)[O-])ccc2c(=O)c2c(O)cc3c(c21)C=CC(C)(C)O3 | > 100 µM (inactive) | 60.5 µM (inactive) | > 100 µM (inactive) | 31.1 µM (inactive) | > 100 µM (inactive) | > 100 µM (inactive) | > 100 µM (inactive) | > 100 µM (inactive) | 46.5 µM (inactive) | 32 µM (inactive) | 25.9 µM (inactive) | 35.1 µM (inactive) | > 100 µM (inactive) | 10.1 µM (inactive) | > 100 µM (inactive) | 25.1 µM (inactive) | 21.9 µM (inactive) |  |  | 
N#Cc1ccc(Nc2cnc3cc(N)ccc3n2)cc1 | 69 µM (inactive) | 66.5 µM (inactive) | > 100 µM (inactive) |  | 28.3 µM (inactive) | 94 µM (inactive) | 75.2 µM (inactive) | 58.1 µM (inactive) | 48.2 µM (inactive) | > 100 µM (inactive) | 26.5 µM (inactive) | > 100 µM (inactive) | > 100 µM (inactive) | > 100 µM (inactive) | > 100 µM (inactive) | 83.4 µM (inactive) | > 100 µM (inactive) |  |  | 
Cc1nc(Nc2ccccc2)sc1C(=O)CC(=O)C(=O)NC12CC3CC(CC(C3)C1)C2 | > 100 µM (inactive) | 65.2 µM (inactive) | > 100 µM (inactive) | 84.5 µM (inactive) | > 100 µM (inactive) | 80.7 µM (inactive) | 50.4 µM (inactive) | > 100 µM (inactive) | 79.6 µM (inactive) | > 100 µM (inactive) | 54.6 µM (inactive) | > 100 µM (inactive) | > 100 µM (inactive) | 33.9 µM (inactive) | > 100 µM (inactive) | 41.4 µM (inactive) | > 100 µM (inactive) |  |  | 
OCCN(CCO)c1ncnc2c1sc(=S)n2-c1ccccc1 | > 100 µM (inactive) | > 100 µM (inactive) | > 100 µM (inactive) | > 100 µM (inactive) | > 100 µM (inactive) | > 100 µM (inactive) | > 100 µM (inactive) | > 100 µM (inactive) | > 100 µM (inactive) | > 100 µM (inactive) | > 100 µM (inactive) | > 100 µM (inactive) | > 100 µM (inactive) | > 100 µM (inactive) | > 100 µM (inactive) | > 100 µM (inactive) | > 100 µM (inactive) |  |  | 
NCCNc1cccc2ccccc12 | > 100 µM (inactive) | > 100 µM (inactive) | > 100 µM (inactive) | > 100 µM (inactive) |  | > 100 µM (inactive) | > 100 µM (inactive) | > 100 µM (inactive) | > 100 µM (inactive) | > 100 µM (inactive) | > 100 µM (inactive) | > 100 µM (inactive) |  |  | > 100 µM (inactive) | > 100 µM (inactive) | > 100 µM (inactive) |  |  | 
